We go through 1 compound from US7951775B2, “Methods and pharmaceutical compositions for GnRH-I and GnRH-II modulation of T-cell activity, adhesion, migration and extravasation” (priority 2001, dated 2011).

Experiment [1] concerns normal human T-cells. Nature of the experiment: Quantitative RT-PCR of 67 kDa laminin receptor mRNA in T-cells. Type of experiment: cell-based.
In experiment [2] the test system is normal human T-cells. Nature of the experiment: Double immunofluorescence staining (FACS) for surface 67 kDa laminin receptor and TCR. Type of experiment: cell-based. The procedure: Normal human T-cells, isolated from fresh peripheral blood lymphocytes, or EL-4 T-lymphocyte cells were subjected to double immunofluorescence staining, using a mouse monoclonal anti-67 kDa LR antibody (100 μl of 1:20 dilution per 1×10^6 cells/tube; 30 minutes on ice), or normal mouse sera for control. The cells were then stained with an FITC-conjugated goat anti-mouse IgG (100 μl of 1:100 dilution), and PE-conjugated mouse anti-human TCR αβ mAb (2 μl of stock). Cells that were stained only with the second and third antibodies served as additional negative controls. Fluorescence profiles were recorded in a FACSORT. To determine whether GnRH-II and GnRH-I trigger not only the gene transcription but also the surface expression of the 67 kDa LR, normal human T-cells were treated with either GnRH-II or GnRH-I for 18-66 h and subjected to double immunofluorescence staining using a monoclonal antibody (mAb) that is specific for the 67 kDa LR, and a phycoerythrin (PE)-conjugated anti-TCRαβ mAb (to confirm the T-cell origin of the cells). FIGS. 2A-2C show the staining for the untreated, GnRH-I treated and GnRH-II treated T-cells, respectively. The FACS profiles can be interpreted by division according to four categories: 1. Negative staining for both mAbs (double negative, lower left quadrant); 2. Single positive staining only with the anti-LR mAb (lower right quadrant), 3. Single positive staining only with the anti-TCR mAb (upper left quadrant); 4. Double positive staining with both mAbs (upper right quadrant). […] In different experiments, each using freshly isolated T-cells from a different human donor, both GnRH II and GnRH I repeatedly elevated the laminin receptor expression level, but the magnitude of elevation varied within a range of 6-40%. Such variations between T-cell populations originating from different donors are often observed in respect to various T-cell features and functions.

Where a SMILES comes first, the peptide text is derived from it. [ ]: non-standard residue; d: D form. dPhe(4-Cl) = N[C@H](Cc1ccc(Cl)cc1)C(=O)O; d2Nal = N[C@H](Cc1ccc2ccccc2c1)C(=O)O; dCit = NC(=O)NCCC[C@@H](N)C(=O)O; d3Pal = N[C@H](Cc1cccnc1)C(=O)O

Consider `CC(=O)N[C@H](Cc1ccc2ccccc2c1)C(=O)N[C@H](Cc1ccc(Cl)cc1)C(=O)N[C@H](Cc1cccnc1)C(=O)N[C@@H](CO)C(=O)N[C@@H](Cc1ccc(O)cc1)C(=O)N[C@H](CCCNC(N)=O)C(=O)N[C@@H](CC(C)C)C(=O)N[C@@H](CCCNC(=N)N)C(=O)N1CCC[C@H]1C(=O)N[C@H](C)C(N)=O` [Cetrorelix, reference compound] (Ac-[d2Nal][dPhe(4-Cl)][d3Pal]SY[dCit]LRP[dA]-NH2), for which the “block of GnRH-I induced upregulation in gene expression of the 67 kDa LR” value in the experiment with normal human T-cells [1] (100 nM Cetrorelix + 10 nM GnRH-I (FIG. 2D)) is reported as “blocked”. The “block of GnRH-II effect on gene expression of the 67 kDa LR” value in the experiment on normal human T-cells [1] (100 nM Cetrorelix + 10 nM GnRH-II (FIG. 2D)) is listed as “did not block”. Further, in the experiment with normal human T-cells [2] (100 nM Cetrorelix + 10 nM GnRH-I (FIG. 2E)), the “block of GnRH-I induced upregulation in surface expression of the 67 kDa LR” value is “blocked”. Further, in the experiment with normal human T-cells [2] (100 nM Cetrorelix + 10 nM GnRH-II (FIG. 2E)), the “block of GnRH-II effect on surface expression of the 67 kDa LR” value is on record as “did not block”.
